In patent US4769383A, “Dioxonaphthotriazoles having antiallergic activity” (Beecham Group p.l.c., priority 1981, dated 1988):

Experiments:
[1] = test system: slow reacting substance of anaphylaxis (SRS-A), isolated guinea pig ileum; assay: SRS-A Antagonism on Guinea Pig Ileum; settings: isolated guinea pig ileum strips; Tyrode's solution with atropine 5×10^-7 M and mepyramine 10^-6 M; rat SRS-A; read-out: Approximate concentration to give a 50% inhibition of a less than maximal response to SRS-A
Method: (§1) The compounds were tested for their ability to:
(b) antagonise the spasmogenic effects of slow reacting substance of anaphylaxis, SRS-A, on isolated guinea pig ileum.
(§2) Charles River Sprague Dawley male rats of 250-300 g. and Dunkin Hartley male white guinea pigs of 250-300 g. were used.
The compounds have been evaluated as direct antagonists of slow reacting substance of anaphylaxis (SRS-A) by assay using the isolated guinea pig ileum.
SRS-A rat was obtained from the peritoneal cavity of the rat after passive peritoneal anaphylaxis by a method based on that of R. P. Orange, D. J. Stechschulte and K. F. Austen, J. Immunology, 105, 1087 (1970) as described by J. W. Ross, H. Smith and B. A. Spicer 1976, Increased vascular permeability during passive peritoneal anaphylaxis in the rat. Int. Arch. Allergy appl. 51, 226. The sensitising serum containing antibody was produced in rats as described by J. W. Ross et. al., ibid.
2 ml of a 1 in 5 dilution of the sensitising serum was injected by the peritoneal route into recipient rats and after 2 hours 5 ml of Tyrode's solution containing 0.4 mg/ml ovalbumin (Sigma Grade III) and 50 μg/ml heparin was injected by the same route. Five minutes after challenge the rats were stunned and bled and the peritoneal fluids collected into polycarbonate tubes in ice. After centrifugation at 150 g. for five minutes the supernatants were combined, heated in a boiling water bath for five minutes, cooled and stored at -20° C. The combined peritoneal fluids contained SRS-A and were used in the antagonism studies.
The SRS-A arrays were carried out on isolated strips of guinea pig ileum in Tyrode's solution containing atropine 5×10^-7 M and mepyramine 10^-6 M as described by W. E. Brocklehurst, J. Physiology, 151, 416 (1960).
The activity of the antagonists was determined by their ability to reduce submaximal responses induced by SRS-A. The antagonists were added to the 4 ml bath in 0.1 ml volumes in aqueous solution half a minute before the addition of SRS-A and were present during induced contraction.

[2] = test system: rat passive peritoneal anaphylaxis; assay: Rat Passive Peritoneal Anaphylaxis (PPA); type: in vivo; settings: Mean ± SEM, 5-7 rats per group; for Dye concentration in peritoneal fluid as % of mean of controls: Pontamine Sky Blue
Method: as §1
(a) inhibit rat passive peritoneal anaphylaxis; and
as §2
The method has been described previously. (Ross, Janet W., Smith, H. and Spicer, Barbara A. Increased vascular permeability during passive peritoneal anaphylaxis in the rat. Int. Arch. Allergy appl. Immun., 51, 226, 1976).
Rats were sensitised by giving an intraperitoneal injection of 0.5 ml of Bordetella pertussis vaccine (4×10^10 organisms/ml Burroughs Wellcome, London) and a subcutaneous injection of 0.5 ml of an emulsion of 100 mg of ovalbumin (chicken egg albumin, crystallised and lyophilised, grade 3, Sigma, London) in 2 ml of isotonic saline and 3 ml of Freud's incomplete adjuvant (Difco Laboratories, Michigan, USA).
The rats were bled by cardiac puncture, on day 18, the blood was pooled, and the serum separated, stored at -20° C. and thawed only before use.
Rats were each given an intraperitoneal injection of 2 ml of a 1:5 dilution of the rat anti-serum in isotonic saline. Two hours later 0.3 ml of a 5% solution of Pontamine Sky Blue (Raymond A. Lamb, London) in isotonic saline was injected intravenously, followed by an intraperitoneal injection of the test compound in 1 ml of saline; (control rats received 1 ml of saline); followed 30 seconds later by an intraperitoneal injection of 5 ml of Tyrode's solution containing 50 μg/ml heparin and 0.4 mg/ml of ovalbumin. The concentrations of the compounds were quoted as those in the 6 ml of fluid injected intraperitoneally. Exactly five minutes after challenge the rats were stunned and bled and their peritoneal fluids were collected by opening their peritoneal cavities over funnels into polycarbonate tubes in ice. The supernatants were separated from the cellular residue by centrifuging at 150 g. for five minutes and were retained for assay of dye and histamine. Any samples obviously contaminated with blood were not used for estimation of dye. Groups of at least five rats were used for each dose of compound and the treatments were randomised.
Dye was assayed within two hours by measurement of optical density (OD) at 625 nm.
For histamine assay 0.5 ml samples of the supernatants were added to 1 ml volumes of 12% trichloracetic acid and stored at -20° C. The deproteinised samples were assayed using an automated spectrofluorimetric system (Technicon Autoanalyser) by a method similar to that of Evans, D. P., Lewis, J. A. and Thomson, D. S.: (An automated fluorimetric assay for the rapid determination of histamine in biological fluids. Life Sci. 12, 327, 1973).

Structure (SMILES)	IC50 [1] [µM]	Histamine concentration in peritoneal fluid as % of mean of controls ([2]; 2 × 10^-7 M injected i.p.)	Dye concentration in peritoneal fluid as % of mean of controls ([2]; 2 × 10^-7 M injected i.p.)	Histamine concentration in peritoneal fluid as % of mean of controls ([2]; 2 × 10^-8 M injected i.p.)	Dye concentration in peritoneal fluid as % of mean of controls ([2]; 2 × 10^-8 M injected i.p.)	Histamine concentration in peritoneal fluid as % of mean of controls ([2]; 2 × 10^-5 M injected i.p.)	Dye concentration in peritoneal fluid as % of mean of controls ([2]; 2 × 10^-5 M injected i.p.)	Histamine concentration in peritoneal fluid as % of mean of controls ([2]; 2 × 10^-6 M injected i.p.)	Dye concentration in peritoneal fluid as % of mean of controls ([2]; 2 × 10^-6 M injected i.p.)
CCCc1c(OCC(O)COc2ccc3c(c2)C(=O)c2nn[nH]c2C3=O)ccc(C(C)=O)c1O (centres unmarked) [Example 4, 6-[3-(4-Acetyl-3-hydroxy-2-n-propylphenoxy)2-hydroxypropoxy]-4,9-dihydro-4,9-dioxo-1H-naphtho[2,3-d]-v-triazole]	0.1 to 0.25	38 ± 4 % of mean of controls	58 ± 4 % of mean of controls	64 ± 11 % of mean of controls	72 ± 11 % of mean of controls	–	–	–	–
CCCc1c(OCCCOc2cccc3c2C(=O)c2nn[nH]c2C3=O)ccc(C(C)=O)c1O [Example 3, 5-[3-(4-Acetyl-3-hydroxy-2-n-propylphenoxy)-propoxy]4,9-dihydro-4,9-dioxo-1H-naphtho[2,3-d]-v-triazole]	1 to 10	–	–	–	–	25 ± 3 % of mean of controls	57 ± 4 % of mean of controls	62 ± 11 % of mean of controls	94 ± 8 % of mean of controls
CCCc1c(OCCCOc2ccc3c(c2)C(=O)c2nn[nH]c2C3=O)ccc(C(C)=O)c1O [Example 1, 6-[3-(4-Acetyl-3-hydroxy-2-n-propylphenoxy)propoxy]4,9-dihydro-4,9-dioxo-1H-naphtho[2,3-d]-v-triazole]	~0.4	57 ± 11 % of mean of controls	63 ± 5 % of mean of controls	–	–	10 ± 1 % of mean of controls	32 ± 5 % of mean of controls	27 ± 8 % of mean of controls	58 ± 8 % of mean of controls
